# Assay results as given in PubChem BioAssay AID1918938 (Molecular Pharmacology Branch, DTP, NCI, 2023).
# Test system: 556581-035-R-J1-PDC complex spheroid viability
# Assay: Anticancer human tumor 556581-035-R-J1-PDC patient-derived ovarian carcinoma cell line growth inhibition
# Conditions: for IC50: curve of first compound; for viability, T/C: stronger effect = lower value
# How it was run: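 Drug combinations with the LSD1 inhibitor iadademstat tested on tumor cells co-cultured as spheroids with endothelial cells and mesenchymal stem cells. Concentrations descended in half-log increments from clinical Cmax or 10 microM.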
# [1] = second compound 0.1 µM, first compound 0.0316 µM
# [2] = second compound 0.1 µM, first compound 0.1 µM
# [3] = second compound 0.1 µM, first compound 0.316 µM
# [4] = second compound 0.1 µM, first compound 1 µM
# [5] = second compound 0.1 µM, first compound 3.16 µM
# [6] = second compound 0.1 µM, first compound 10 µM
# [7] = second compound 0.316 µM, first compound 0.0316 µM
# [8] = second compound 0.316 µM, first compound 0.1 µM
# [9] = second compound 0.316 µM, first compound 0.316 µM
# [10] = second compound 0.316 µM, first compound 1 µM
# [11] = second compound 0.316 µM, first compound 3.16 µM
# [12] = second compound 0.316 µM, first compound 10 µM
# [13] = second compound 1 µM, first compound 0.0316 µM
# [14] = second compound 1 µM, first compound 0.1 µM
# [15] = second compound 1 µM, first compound 0.316 µM
# [16] = second compound 1 µM, first compound 1 µM
# [17] = second compound 1 µM, first compound 3.16 µM
# [18] = second compound 1 µM, first compound 10 µM
# [19] = second compound 3.16 µM, first compound 0.0316 µM
# [20] = second compound 3.16 µM, first compound 0.1 µM
# [21] = second compound 3.16 µM, first compound 0.316 µM
# [22] = second compound 3.16 µM, first compound 1 µM
# [23] = second compound 3.16 µM, first compound 3.16 µM
# [24] = second compound 3.16 µM, first compound 10 µM
# [25] = second compound 10 µM, first compound 0.0316 µM
# [26] = second compound 10 µM, first compound 0.1 µM
# [27] = second compound 10 µM, first compound 0.316 µM
# [28] = second compound 10 µM, first compound 1 µM
# [29] = second compound 10 µM, first compound 3.16 µM
# [30] = second compound 10 µM, first compound 10 µM
# 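Further: spheroids exposed to agents for seven days.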
# 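Wherever viability, T/C is given: 100% = DMSO vehicle control wells.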
Structure (SMILES),IC50 (second compound 0.1 µM) [µM],IC50 (second compound 0.316 µM) [µM],IC50 (second compound 1 µM) [µM],IC50 (second compound 3.16 µM) [µM],IC50 (second compound 10 µM) [µM],"viability, T/C [1] [%]","viability, T/C [2] [%]","viability, T/C [3] [%]","viability, T/C [4] [%]","viability, T/C [7] [%]","viability, T/C [8] [%]","viability, T/C [9] [%]","viability, T/C [10] [%]","viability, T/C [13] [%]","viability, T/C [14] [%]","viability, T/C [15] [%]","viability, T/C [16] [%]","viability, T/C [19] [%]","viability, T/C [20] [%]","viability, T/C [21] [%]",further results
CC(C)c1c(-c2ccccc2)nc2c(C#N)c[nH]n2c1=O + NC1CCC(NC2CC2c2ccccc2)CC1,> 10,> 10,> 10,8.29,4.84,93.2,94.5,90.9,87.9,87,79.1,86.3,78.3,72.2,78.2,78,82.3,85.4,76.4,77.8,"viability, T/C [5]: 83%; viability, T/C [6]: 56.5%; viability, T/C [11]: 71.4%; viability, T/C [12]: 54.4%; viability, T/C [17]: 78.7%; viability, T/C [18]: 53.7%; viability, T/C [22]: 76%; viability, T/C [23]: 68.3%; viability, T/C [24]: 46.2%; viability, T/C [25]: 70%; viability, T/C [26]: 73.8%; viability, T/C [27]: 76%; viability, T/C [28]: 66.8%; viability, T/C [29]: 54%; viability, T/C [30]: 43.7%"
CC1COCCN1c1cc(-c2ccnn2C)c2ccnc(-c3ccn[nH]3)c2n1 (stereo not given) + NC1CCC(NC2CC2c2ccccc2)CC1,0.0462,0.027,0.025,0.0216,0.0119,55,38.3,36.1,14.8,46.3,38.2,29.8,15.3,45.6,36.8,36.8,17.9,44.3,39.8,35.8,"viability, T/C (second compound 0.1 µM, first compound 0.00316 µM): 64.5%; viability, T/C (second compound 0.1 µM, first compound 0.01 µM): 61.4%; viability, T/C (second compound 0.316 µM, first compound 0.00316 µM): 72.9%; viability, T/C (second compound 0.316 µM, first compound 0.01 µM): 58.8%; viability, T/C (second compound 1 µM, first compound 0.00316 µM): 61.1%; viability, T/C (second compound 1 µM, first compound 0.01 µM): 59.7%; viability, T/C (second compound 3.16 µM, first compound 0.00316 µM): 62.5%; viability, T/C (second compound 3.16 µM, first compound 0.01 µM): 54.7%; viability, T/C [22]: 19.2%; viability, T/C (second compound 10 µM, first compound 0.00316 µM): 50%; viability, T/C (second compound 10 µM, first compound 0.01 µM): 55.5%; viability, T/C [25]: 44.8%; viability, T/C [26]: 38%; viability, T/C [27]: 30.5%; viability, T/C [28]: 17.3%"
COc1ccc([C@@H](O)c2cc(-c3ncnc4cc(N5CCOCC5)ccc34)c(F)cc2Cl)nn1 + NC1CCC(NC2CC2c2ccccc2)CC1,0.943,0.582,0.906,0.847,0.639,91,80.4,69,47.9,80.3,81.6,60.6,39.9,76,76.1,66.9,46.6,79.5,78.6,65.3,"viability, T/C [5]: 37.7%; viability, T/C [6]: 32.9%; viability, T/C [11]: 37.7%; viability, T/C [12]: 28.8%; viability, T/C [17]: 35.6%; viability, T/C [18]: 25.6%; viability, T/C [22]: 45.3%; viability, T/C [23]: 37%; viability, T/C [24]: 25.9%; viability, T/C [25]: 63.2%; viability, T/C [26]: 63.2%; viability, T/C [27]: 56.3%; viability, T/C [28]: 44.6%; viability, T/C [29]: 33.3%; viability, T/C [30]: 17%"
